Results reported in ChEMBL document CHEMBL5335767, “Synthesis and study of new siderophore analog-ciprofloxacin conjugates with antibiotic activities against Pseudomonas aeruginosa and Burkholderia spp” (Eur J Med Chem, 2023).
Converted amounts (≈) assume the structure as drawn.

Legend:
Pseudomonas aeruginosa [1] = assay: Antibacterial activity against Pseudomonas aeruginosa PAO1 under muller hinton medium by CLSI protocol based microdilution method; type: functional
Pseudomonas aeruginosa [2] = assay: Antibacterial activity against Pseudomonas aeruginosa PAO1 under succinate minimum medium by CLSI protocol based microdilution method; type: functional
Pseudomonas aeruginosa [3] = assay: Antibacterial activity against Pseudomonas aeruginosa PAO1 under 1 uM FeCl3 medium by CLSI protocol based microdilution method; type: functional
Pseudomonas aeruginosa [4] = assay: Antibacterial activity against Pseudomonas aeruginosa PAD07 under muller hinton medium by CLSI protocol based microdilution method; type: functional
Pseudomonas aeruginosa [5] = assay: Antibacterial activity against Pseudomonas aeruginosa PAD07 under succinate minimum medium by CLSI protocol based microdilution method; type: functional
Pseudomonas aeruginosa [6] = assay: Antibacterial activity against Pseudomonas aeruginosa PAD07 under 1 uM FeCl3 medium by CLSI protocol based microdilution method; type: functional
Pseudomonas aeruginosa [7] = assay: Antibacterial activity against Pseudomonas aeruginosa AM85 under muller hinton medium by CLSI protocol based microdilution method; type: functional
Pseudomonas aeruginosa [8] = assay: Antibacterial activity against Pseudomonas aeruginosa AM85 under succinate minimum medium by CLSI protocol based microdilution method; type: functional
Pseudomonas aeruginosa [9] = assay: Antibacterial activity against Pseudomonas aeruginosa AM85 under 1 uM FeCl3 medium by CLSI protocol based microdilution method; type: functional
[10] = system: Burkholderia pseudomallei; assay: Antibacterial activity against Burkholderia pseudomallei BPS2020IRBA001 under muller hinton medium by CLSI protocol based microdilution method; type: functional
[11] = system: Burkholderia pseudomallei; assay: Antibacterial activity against Burkholderia pseudomallei BPS2020IRBA001 under succinate minimum medium by CLSI protocol based microdilution method; type: functional
[12] = system: Burkholderia pseudomallei; assay: Antibacterial activity against Burkholderia pseudomallei BPS2020IRBA001 under 1 uM FeCl3 medium by CLSI protocol based microdilution method; type: functional
[13] = system: Burkholderia pseudomallei; assay: Antibacterial activity against Burkholderia pseudomallei BPS2020IRBA002 under muller hinton medium by CLSI protocol based microdilution method; type: functional
[14] = system: Burkholderia pseudomallei; assay: Antibacterial activity against Burkholderia pseudomallei BPS2020IRBA002 under succinate minimum medium by CLSI protocol based microdilution method; type: functional
[15] = system: Burkholderia pseudomallei; assay: Antibacterial activity against Burkholderia pseudomallei BPS2020IRBA002 under 1 uM FeCl3 medium by CLSI protocol based microdilution method; type: functional
[16] = system: Burkholderia pseudomallei; assay: Antibacterial activity against Burkholderia pseudomallei K96243 under muller hinton medium by CLSI protocol based microdilution method; type: functional
[17] = system: Burkholderia pseudomallei; assay: Antibacterial activity against Burkholderia pseudomallei K96243 under succinate minimum medium by CLSI protocol based microdilution method; type: functional
[18] = system: Burkholderia pseudomallei; assay: Antibacterial activity against Burkholderia pseudomallei K96243 under 1 uM FeCl3 medium by CLSI protocol based microdilution method; type: functional
[19] = system: Burkholderia pseudomallei; assay: Antibacterial activity against Burkholderia pseudomallei BPS2020IRBA003 under muller hinton medium by CLSI protocol based microdilution method; type: functional
[20] = system: Burkholderia pseudomallei; assay: Antibacterial activity against Burkholderia pseudomallei BPS2020IRBA003 under succinate minimum medium by CLSI protocol based microdilution method; type: functional
[21] = system: Burkholderia pseudomallei; assay: Antibacterial activity against Burkholderia pseudomallei BPS2020IRBA003 under 1 uM FeCl3 medium by CLSI protocol based microdilution method; type: functional
[22] = system: Burkholderia pseudomallei; assay: Antibacterial activity against Burkholderia pseudomallei BPS2020IRBA004 under muller hinton medium by CLSI protocol based microdilution method; type: functional
[23] = system: Burkholderia pseudomallei; assay: Antibacterial activity against Burkholderia pseudomallei BPS2020IRBA005 under muller hinton medium by CLSI protocol based microdilution method; type: functional
[24] = system: Burkholderia pseudomallei; assay: Antibacterial activity against Burkholderia pseudomallei BPS2020IRBA005 under succinate minimum medium by CLSI protocol based microdilution method; type: functional
[25] = Antibacterial activity against Burkholderia pseudomallei BPS2020IRBA005 under 1 uM FeCl3 medium by CLSI protocol based microdilution method; type: functional; conditions: Burkholderia thailandensis
[26] = system: Burkholderia thailandensis; assay: Antibacterial activity against Burkholderia thailandensis E264 under muller hinton medium by CLSI protocol based microdilution method; type: functional
[27] = system: Burkholderia thailandensis; assay: Antibacterial activity against Burkholderia thailandensis E264 under succinate minimum medium by CLSI protocol based microdilution method; type: functional
[28] = system: Burkholderia thailandensis; assay: Antibacterial activity against Burkholderia thailandensis E264 under 1 uM FeCl3 medium by CLSI protocol based microdilution method; type: functional
[29] = system: Burkholderia thailandensis; assay: Antibacterial activity against Burkholderia thailandensis E264TS32C10 under muller hinton medium by CLSI protocol based microdilution method; type: functional
[30] = system: Burkholderia thailandensis; assay: Antibacterial activity against Burkholderia thailandensis E264TS32C10 under succinate minimum medium by CLSI protocol based microdilution method; type: functional
[31] = system: Burkholderia thailandensis; assay: Antibacterial activity against Burkholderia thailandensis E264TS32C10 under 1 uM FeCl3 medium by CLSI protocol based microdilution method; type: functional
[32] = system: Burkholderia thailandensis; assay: Antibacterial activity against Burkholderia thailandensis E264TS32C12 under muller hinton medium by CLSI protocol based microdilution method; type: functional
[33] = system: Burkholderia thailandensis; assay: Antibacterial activity against Burkholderia thailandensis E264TS32C12 under succinate minimum medium by CLSI protocol based microdilution method; type: functional
[34] = system: Burkholderia thailandensis; assay: Antibacterial activity against Burkholderia thailandensis E264TS32C12 under 1 uM FeCl3 medium by CLSI protocol based microdilution method; type: functional
[35] = system: Burkholderia thailandensis; assay: Antibacterial activity against Burkholderia thailandensis E264TS32C47 under muller hinton medium by CLSI protocol based microdilution method; type: functional
[36] = system: Burkholderia thailandensis; assay: Antibacterial activity against Burkholderia thailandensis E264TS32C47 under succinate minimum medium by CLSI protocol based microdilution method; type: functional
[37] = system: Burkholderia thailandensis; assay: Antibacterial activity against Burkholderia thailandensis E264TS32C47 under 1 uM FeCl3 medium by CLSI protocol based microdilution method; type: functional
HepG2 = assay: Cytotoxicity against human HepG2 cells at 23 ug/ml after 48 hrs by CellTiter-Glo luminescent cell viability assay; type: toxicity, cell-based; conditions: hepg2, 48 h, dose 23 µg/ml

Row | SMILES | MIC (Pseudomonas aeruginosa [1]) [µg/mL] | MIC (Pseudomonas aeruginosa [2]) [µg/mL] | MIC (Pseudomonas aeruginosa [3]) [µg/mL] | MIC (Pseudomonas aeruginosa [4]) [µg/mL] | MIC (Pseudomonas aeruginosa [5]) [µg/mL] | MIC (Pseudomonas aeruginosa [6]) [µg/mL] | MIC (Pseudomonas aeruginosa [7]) [µg/mL] | MIC (Pseudomonas aeruginosa [8]) [µg/mL] | MIC (Pseudomonas aeruginosa [9]) [µg/mL] | MIC [10] [µg/mL] | MIC [11] [µg/mL] | MIC [12] [µg/mL] | MIC [13] [µg/mL] | MIC [14] [µg/mL] | MIC [15] [µg/mL] | MIC [16] [µg/mL] | MIC [17] [µg/mL] | MIC [18] [µg/mL] | MIC [19] [µg/mL] | MIC [20] [µg/mL] | also measured
1 | O=C(O)c1cn(C2CC2)c2cc(N3CCN(C(=O)c4cccc(O)c4O)CC3)c(F)cc2c1=O | 16 (≈ 34.2 µM) | 32 (≈ 68.5 µM) | 32 (≈ 68.5 µM) | 8 (≈ 17.1 µM) | 1 (≈ 2.14 µM) | 8 (≈ 17.1 µM) | > 128 | 128 (≈ 274 µM) | > 128 | 32 (≈ 68.5 µM) | 32 (≈ 68.5 µM) | 32 (≈ 68.5 µM) | 16 (≈ 34.2 µM) | 8 (≈ 17.1 µM) | 16 (≈ 34.2 µM) | 8 (≈ 17.1 µM) | 2 (≈ 4.28 µM) | 4 (≈ 8.56 µM) | 16 (≈ 34.2 µM) | 8 (≈ 17.1 µM) | MIC [21]: 16 µg/mL (≈ 34.2 µM); MIC [22]: 32 µg/mL (≈ 68.5 µM); MIC [23]: 64 µg/mL (≈ 137 µM); MIC [24]: 8 µg/mL (≈ 17.1 µM); MIC [25]: 8 µg/mL (≈ 17.1 µM); MIC [26]: 16 µg/mL (≈ 34.2 µM); MIC [27]: 8 µg/mL (≈ 17.1 µM); MIC [28]: 8 µg/mL (≈ 17.1 µM); MIC [29]: 32 µg/mL (≈ 68.5 µM); MIC [30]: 32 µg/mL (≈ 68.5 µM); MIC [31]: 32 µg/mL (≈ 68.5 µM); MIC [32]: 32 µg/mL (≈ 68.5 µM); MIC [33]: 16 µg/mL (≈ 34.2 µM); MIC [34]: 16 µg/mL (≈ 34.2 µM); MIC [35]: 16 µg/mL (≈ 34.2 µM); MIC [36]: 8 µg/mL (≈ 17.1 µM); MIC [37]: 8 µg/mL (≈ 17.1 µM); Activity (HepG2): Non-Toxic
2 | O=C(O)c1cn(C2CC2)c2cc(N3CCN(C(=O)c4cc(=O)c(O)c[nH]4)CC3)c(F)cc2c1=O | 32 (≈ 68.3 µM) | 32 (≈ 68.3 µM) | 32 (≈ 68.3 µM) | 32 (≈ 68.3 µM) | 2 (≈ 4.27 µM) | 16 (≈ 34.2 µM) | > 128 | > 128 | > 128 | > 128 | > 128 | > 128 | > 128 | > 128 | > 128 | > 128 | > 128 | > 128 | > 128 | > 128 | MIC [21]: > 128 µg/mL; MIC [22]: > 128 µg/mL; MIC [23]: > 128 µg/mL; MIC [24]: > 128 µg/mL; MIC [25]: > 128 µg/mL; MIC [26]: > 128 µg/mL; MIC [27]: > 128 µg/mL; MIC [28]: > 128 µg/mL; MIC [29]: 32 µg/mL (≈ 68.3 µM); MIC [30]: > 128 µg/mL; MIC [31]: > 128 µg/mL; MIC [32]: > 128 µg/mL; MIC [33]: > 1.8 µg/mL; MIC [34]: > 128 µg/mL; MIC [35]: > 128 µg/mL; MIC [36]: > 128 µg/mL; MIC [37]: > 128 µg/mL; Activity (HepG2): Non-Toxic
3 | O=C(O)c1cn(C2CC2)c2cc(N3CCN(C(=O)c4ccc(O)c(O)c4)CC3)c(F)cc2c1=O | 8 (≈ 17.1 µM) | 8 (≈ 17.1 µM) | 8 (≈ 17.1 µM) | 8 (≈ 17.1 µM) | 8 (≈ 17.1 µM) | 8 (≈ 17.1 µM) | > 128 | 128 (≈ 274 µM) | > 128 | > 128 | 128 (≈ 274 µM) | 128 (≈ 274 µM) | > 128 | > 128 | > 128 | 64 (≈ 137 µM) | 64 (≈ 137 µM) | 64 (≈ 137 µM) | 128 (≈ 274 µM) | 128 (≈ 274 µM) | MIC [21]: 128 µg/mL (≈ 274 µM); MIC [22]: 128 µg/mL (≈ 274 µM); MIC [23]: > 128 µg/mL; MIC [24]: > 128 µg/mL; MIC [25]: > 128 µg/mL; MIC [26]: 128 µg/mL (≈ 274 µM); MIC [27]: 64 µg/mL (≈ 137 µM); MIC [28]: 128 µg/mL (≈ 274 µM); MIC [29]: > 128 µg/mL; MIC [30]: > 128 µg/mL; MIC [31]: > 128 µg/mL; MIC [32]: > 128 µg/mL; MIC [33]: > 128 µg/mL; MIC [34]: > 128 µg/mL; MIC [35]: > 128 µg/mL; MIC [36]: > 128 µg/mL; MIC [37]: > 128 µg/mL; Activity (HepG2): Non-Toxic
